Results from US8772031B2, “Composition for reprogramming somatic cells to generate induced pluripotent stem cells, comprising Oct4 in combination with Bmi1 or its upstream regulator, and method for generating induced pluripotent stem cells using the same” (Korea University Research and Business Foundation, priority 2009, dated 2014).

Assays:
Type in all cases: cell-based
[1] = system: Bmi1 expression in mouse embryonic fibroblasts; assay: Bmi1 expression by treatment with Shh or Shh analog (RT-PCR of downstream genes) under neural stem cell-culturing conditions; conditions: for expression of Gli1 and Bmi1 (RT-PCR) / expression of the Bmi1 target genes p16^Ink4a and p19^Arf (RT-PCR): DMEM/F12+B27+N2+bFGF+EGF; for Sox2 expression level: culture condition for neural stem cells
Description: Mouse embryonic fibroblasts were employed to generate embryonic stem cell-like cells. Embryos were taken from CF1 strain mice on embryonic day 13.5. Cells were cultured in DMEM (high glucose, w/o sodium pyruvate) supplemented with 10% FBS (Fetal bovine serum), 0.1 mM non-essential amino acid, 1% penicillin/streptomycin and 0.1 mM β-mercaptoethanol in tissue culture flasks, after which fibroblasts at the 3rd passage were seeded at a density of 2×10^5 cells/well into 6-well plates.
(§1) The fibroblasts prepared in Example 1 were examined for Bmi1 expression when they were treated with Shh or an analog thereof, such as oxysterol or purmorphamine. FIGS. 9A, 14A and 22A are RT-PCR results showing the effect of Shh (Sonic hedgehog), known as an upstream regulator of Bmi1, or its analogs on the expression of genes downstream thereof.

[2] = system: mouse embryonic fibroblasts; assay: Reprogramming of treated fibroblasts into neural stem cell-like cells (morphology, AP staining, immunochemistry); conditions: neural stem cell-culturing conditions, immunochemistry for SSEA1, Nestin, Sox2
Description: as §1
The induced neural stem cell-like cells were positively analyzed by AP staining and immunochemistry for SSEA1, Nestin and Sox2 (FIGS. 9C, 14C and 22C).

[3] = system: adult mouse embryonic fibroblasts; assay: Establishment of iPS cells (OO-iPS-TTF #1, 2) by Oct4 introduction during treatment with oxysterol; conditions: oxysterol 0.1 μM and 0.5 μM with Oct4 introduction
From the text: The reprogramming method established with mouse embryonic fibroblasts was applied to adult mouse embryonic fibroblasts. […] 00-iPS-TTF #1 and 2 were positively stained with AP and found to express SSEA1, Oct4, Sox2, and Nanog as measured by immunochemical staining assays (FIG. 19A).

[4] = system: mouse embryonic fibroblasts; assay: Generation of iPS cells by retroviral Oct4 introduction during treatment with Shh or its analog, then embryonic stem cell culture conditions; conditions: Oct4 retrovirus three times at 16 hr intervals, treatment for 72 hrs, reprogramming process for 10-14 days
[5] = 0.1 μM and 0.5 μM of hydroxycholesterol
[6] = 0.5 μM or 1 μM of purmorphamine

| SMILES | expression of Gli1 and Bmi1 (RT-PCR) [1, 5] | expression of the Bmi1 target genes p16^Ink4a and p19^Arf (RT-PCR) [1, 5] | Sox2 expression level [1] | morphology and neural stem cell markers of the treated cells [2] | derivation of embryonic stem cell-like cells from adult fibroblasts [3] | appearance of ES cell-like colonies [4] | expression of Gli1 and Bmi1 (RT-PCR) [1, 6] | expression of the Bmi1 target genes p16^Ink4a and p19^Arf (RT-PCR) [1, 6] |
| --- | --- | --- | --- | --- | --- | --- | --- | --- |
| C[C@H](CCCC(C)(C)O)[C@H]1CC[C@H]2[C@@H]3CC=C4C[C@@H](O)CC[C@]4(C)[C@H]3CC[C@]12C [hydroxycholesterol, 25-hydroxycholesterol] | upregulation | downregulation | increase | morphology similar to that of neural stem cells and express nestin and sox2 | allowed the derivation of embryonic stem cell-like cells | colonies appeared with the same morphology as ES cells |  |  |
| c1ccc2c(Oc3nc(Nc4ccc(N5CCOCC5)cc4)c4ncn(C5CCCCC5)c4n3)cccc2c1 [purmorphamine, 2-(1-Naphthoxy)-6-(4-morpholinoanilino)-9-cyclohexylpurine] |  |  | increase | morphology similar to that of neural stem cells and express nestin and sox2 |  | colonies appeared with the same morphology as ES cells | upregulation | downregulation |
